Reference: patent US20160324738A1, “Oral Compositions Containing Stannous” (The Procter & Gamble Company, priority 2015, published 2016)

Experiment: In-vitro pH cycling study of enamel fluoride uptake (enamel fluoridation)
Design: species or system human
Conditions: both salts at levels providing 1100 ppm of fluoride ion; versus sodium fluoride
Experimental: An in-vitro pH cycling study was conducted to evaluate the effect of excess metals and its modulation on fluoride uptake in pre-demineralized human enamel specimens.

## [F][Sn][F] [stannous fluoride]
  enamel fluoridation: less than what is typically seen with sodium fluoride
